Data as given in patent US12606541B2, “PPARg modulators and methods of use” (Eisai R&D Management Co., Ltd., priority 2020, dated 2026).
pIC50: −log10 of the molar value. Like-named read-outs stand apart in the source and are kept apart here.

Key:
His6-TEV-PPARγ-(234-505) = target: T1, His6-TEV-PPARγ-(234-505) (Homo sapiens, UniProt P37231); experiment: TR-FRET Assay to Measure Co-R Peptide Recruitment to PPARγ; format: biochemical; conditions: Co-R peptide (SMRT-ID2) recruitment; top final concentration 20 μM; read-out: TR-FRET i-Ag; AC50
T1 construct: The His6-TEV-PPARγ-(234-505) protein for assay was expressed and purified; TEV cleavage site (N); made in house
T1 sequence (P37231 234-505): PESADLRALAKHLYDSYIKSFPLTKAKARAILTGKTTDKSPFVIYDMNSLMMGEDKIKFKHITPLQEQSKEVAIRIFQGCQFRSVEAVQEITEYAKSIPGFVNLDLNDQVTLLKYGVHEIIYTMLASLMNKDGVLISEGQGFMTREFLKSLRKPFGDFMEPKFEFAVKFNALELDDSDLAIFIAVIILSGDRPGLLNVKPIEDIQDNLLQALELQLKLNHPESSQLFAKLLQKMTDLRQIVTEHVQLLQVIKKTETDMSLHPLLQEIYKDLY
Procedure, shortened: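 His-tagged PPARγ (or controls) was preincubated with compound for 20 minutes at room temperature, then 5 nM anti-His terbium antibody and 200 nM FITC-labeled SMRT-ID2 corepressor peptide (final) were added for a further hour. TR-FRET signal was normalized to percent response using 500 nM T0070907 and DMSO controls.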

UM-UC-9 engineered cells = experiment: Cell proliferation / short-term viability assay, CellTiter-Glo 144 h; format: cell-based, human; conditions: read-out: CTGlo 144 h UMUC9.5, G150
Procedure, shortened: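 UM-UC-9 engineered assay-ready cells seeded at 500 cells/well in high-glucose DMEM/10% FBS, treated from dose-response plates, grown at 37° C, 5% CO2. CellTiter-Glo 2.0 luminescence read on day 7, with a day-0 pretreatment plate as T0 reference and DMSO wells as negative control.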

| AC50 (His6-TEV-PPARγ-(234-505)) | Molecule | pIC50 (UM-UC-9 engineered cells) | pIC50 (UM-UC-9 engineered cells; Homo sapiens, UM-UC-9, 144 h) |
| --- | --- | --- | --- |
| 8.7 nM | COc1cc(-c2cc(C(=O)N3CC[C@H](C(=O)NC4CCN(c5cnnc(C)c5)C4)CC34CC4)n[nH]2)c(F)cn1 (single isomer, unassigned) [Example 452-A] | 5.70 | – |
| 388 nM | COc1cc(-c2cc(C(=O)N3CC[C@H](C(=O)NC4CCN(C5COC56CNC6)C4)CC34CC4)n[nH]2)c(F)cn1 (single isomer, unassigned) [Example 461-D] | < 5.00 | – |
| 8.1 nM | COc1cc(-c2cc(C(=O)N3CC[C@H](C(=O)NCc4[nH]cnc4C(F)(F)F)CC34CC4)[nH]n2)c(F)cn1 [Example 503, (S)-4-(3-(5-fluoro-2-methoxypyridin-4-yl)-1H-pyrazole-5-carbonyl)-N-((4-(trifluoromethyl)-1H-imidazol-5-yl)methyl)-4-azaspiro[2.5]octane-7-carboxamide] | – | 6.84 |
| 272 nM | COc1cc(-c2cc(C(=O)N3CC[C@H](C(=O)NC4CCN(C5COC56CNC6)C4)CC34CC4)n[nH]2)c(F)cn1 (single isomer, unassigned) [Example 461-A] | < 5.00 | – |
| 712 nM | COc1cc(-c2cc(C(=O)N3CCC(C(=O)NCC4CC(F)(F)C4)CC3)n[nH]2)c(Cl)cn1 [Example 148, 1-(5-(5-chloro-2-methoxypyridin-4-yl)-1H-pyrazole-3-carbonyl)-N-((3,3-difluorocyclobutyl)methyl)piperidine-4-carboxamide] | – | 5.50 |
| 30.9 nM | COc1cc(-c2cc(C(=O)N3CC[C@H](C(=O)NC4CCC5(CC4)N([S+]([O-])C(C)(C)C)CC5(F)F)CC34CC4)n[nH]2)c(F)cn1 (stereo partly drawn) [Example 409, (7S)—N-(1-(tert-butylsulfinyl)-3,3-difluoro-1-azaspiro[3.5]nonan-7-yl)-4-(5-(5-fluoro-2-methoxypyridin-4-yl)-1H-pyrazole-3-carbonyl)-4-azaspiro[2.5]octane-7-carboxamide] | – | 7.41 |
| 982 nM | COc1cc(-c2cc(C(=O)N3CCC(C(=O)NCc4cn(C)nc4C)CC3)n[nH]2)c(Cl)cn1 [Example 124, 1-(5-(5-chloro-2-methoxypyridin-4-yl)-1H-pyrazole-3-carbonyl)-N-((1,3-dimethyl-1H-pyrazol-4-yl)methyl)piperidine-4-carboxamide] | – | 5.30 |
| 6 nM | COc1cc(-c2cc(C(=O)N3CC[C@H](C(=O)NC4CCN(c5cnc(C)nc5)C4)CC34CC4)n[nH]2)c(F)cn1 (single isomer, unassigned) [Example 453-A] | 7.83 | – |
| 215 nM | COc1cc(-c2cc(C(=O)N3CCC(C(=O)NC4CCOc5ccccc54)CC3)n[nH]2)c(Cl)cn1 (stereo not drawn) [Example 184, 1-(5-(5-chloro-2-methoxypyridin-4-yl)-1H-pyrazole-3-carbonyl)-N (chroman-4-yl)piperidine-4-carboxamide] | – | 6.42 |
| 26.7 nM | COc1cc(-c2cc(C(=O)N3CC[C@H](C(=O)NCc4nc(N5C[C@@H](C)N(C)[C@@H](C)C5)oc4C(F)(F)F)CC34CC4)n[nH]2)c(F)cn1 [Example 485, (S)-4-(5-(5-fluoro-2-methoxypyridin-4-yl)-N-pyrazole-3-carbonyl)-N-((5-(trifluoromethyl)-2-((3S,5R)-3,4,5-trimethylpiperazin-1-yl)oxazol-4-yl)methyl)-4-azaspiro[2.5]octane-7-carboxamide] | – | 6.46 |
| 7250 nM | COc1cc(-c2cc(C(=O)N3CC[C@@H](C(=O)N[C@H]4CCN(CC(C)(C)O)C4)CC34CC4)[nH]n2)c(F)cn1 [Example 345-B, (R)-4-(3-(5-Fluoro-2-methoxypyridin-4-yl)-1H-pyrazole-5-carbonyl)-N—((S)-1-(2-hydroxy-2-methylpropyl)pyrrolidin-3-yl)-4-azaspiro[2.5]octane-7-carboxamide] | – | < 5.00 |
| 79.2 nM | COc1cc(-c2cc(C(=O)N3CC[C@H](C(=O)NCc4nnc(C)cc4C)CC34CC4)n[nH]2)c(F)cn1 [Example 412, (S)—N-((4,6-dimethylpyridazin-3-yl)methyl)-4-(5-(5-fluoro-2-methoxypyridin-4-yl)-1H-pyrazole-3-carbonyl)-4-azaspiro[2.5]octane-7-carboxamide] | – | 6.70 |
| 3.8 nM | COc1cc(-c2cc(C(=O)N3CC[C@H](C(=O)NC4(c5ncc(Cl)cc5Cl)CC4)CC34CC4)n[nH]2)c(F)cn1 [Example 458, (S)—N-(1-(3,5-dichloropyridin-2-yl)cyclopropyl)-4-(5-(5-fluoro-2-methoxypyridin-4-yl)-1H-pyrazole-3-carbonyl)-4-azaspiro[2.5]octane-7-carboxamide] | – | 7.58 |
| 10.5 nM | COc1cc(-c2cc(C(=O)N3CC[C@H](C(=O)N[C@H]4CN(c5ccc(C)nc5)C[C@@H]4F)CC34CC4)n[nH]2)c(F)cn1 [Example 427, (S)—N-((3S,4S)-4-fluoro-1-(6-methylpyridin-3-yl)pyrrolidin-3-yl)-4-(5-(5-fluoro-2-methoxypyridin-4-yl)-1H-pyrazole-3-carbonyl)-4-azaspiro[2.5]octane-7-carboxamide] | – | 8.38 |
| 537 nM | COc1cc(-c2cc(C(=O)N3CCC(C(=O)NC4CCC(C)CC4)CC3)n[nH]2)ccn1 (mixture of isomers) [Example 105, 1-(5-(2-methoxypyridin-4-yl)-1H-pyrazole-3-carbonyl)-N-(4-methylcyclohexyl)piperidine-4-carboxamide] | – | 5.99 |

| Molecule | AC50 (His6-TEV-PPARγ-(234-505)) | pIC50 (UM-UC-9 engineered cells) | pIC50 (UM-UC-9 engineered cells; Homo sapiens, UM-UC-9, 144 h) |
| --- | --- | --- | --- |
| COc1cc(-c2cc(C(=O)N3CCC(C(=O)NCC4CCn5c(C)nnc5C4)CC34CC4)[nH]n2)c(F)cn1 (mixture of isomers) [Example 346, (S)-4-(3-(5-fluoro-2-methoxypyridin-4-yl)-1H-pyrazole-5-carbonyl)-NVR)-3-methyl-5,6,7,8-tetrahydro-[1,2,4]triazolo[4,3-a]pyridin-7-yl)methyl)-4-azaspiro[2.5]octane-7-carboxamide and (8)-4-(3-(5-fluoro-2-methoxypyridin-4-yl)-1H-pyrazole-5-carbonyl)-N—(((S)-3-methyl-5,6,7,8-tetrahydro-[1,2,4]triazolo[4,3-a]pyridin-7-yl)methyl)-4-azaspiro[2.5]octane-7-carboxamide] | 371 nM | < 5.00 | – |
| COc1cc(-c2cc(C(=O)N3CCC(C(=O)NC45CC(CO)(C4)OC5C)CC34CC4)n[nH]2)c(F)cn1 (mixture of isomers) [Example 518, (S)-4-(5-(5-fluoro-2-methoxypyridin-4-yl)-1H-pyrazole-3-carbonyl)-N—((R)-1-(hydroxymethyl)-3-methyl-2-oxabicyclo[2.1.1]hexan-4-yl)-4-azaspiro[2.5]octane-7-carboxamide and (S)-4-(5-(5-fluoro-2-methoxypyridin-4-yl)-1H-pyrazole-3-carbonyl)-N—((S)-1-(hydroxymethyl)-3-methyl-2-oxabicyclo[2.1.1]hexan-4-yl)-4-azaspiro[2.5]octane-7-carboxamide] | 149 nM | 5.39 | – |
| COc1cc(-c2cc(C(=O)N3[C@@H]4CC[C@H]3C[C@H](C(=O)NC3CCC(C(F)(F)F)OC3)C4)n[nH]2)c(F)cn1 (single isomer, unassigned) [Example 280-A] | 895 nM | – | 5.24 |
| (S)—N-((1s,4R)-4-(1,1-difluoroethyl)-4-hydroxycyclohexyl)-4-(5-(5-fluoro-2-methoxypyridin-4-yl)-1H-pyrazole-3-carbonyl)-4-azaspiro[2.5]octane-7-carboxamide and (S)—N-((1r,4S)-4-(1,1-difluoroethyl)-4-hydroxycyclohexyl)-4-(5-(5-fluoro-2-methoxypyridin-4-yl)-1H-pyrazole-3-carbonyl)-4-azaspiro[2.5]octane-7-carboxamide [Example 375] | 6.4 nM | 8.80 | – |
| COc1cc(-c2cc(C(=O)N3CCC(C(=O)Nc4cnn5ccc(C(C)O)nc45)CC34CC4)n[nH]2)c(F)cn1 (mixture of isomers) [Example 445, (S)-4-(5-(5-fluoro-2-methoxypyridin-4-yl)-1H-pyrazole-3-carbonyl)-N-(5-((R)-1-hydroxyethyl)pyrazolo[1,5-a]pyrimidin-3-yl)-4-azaspiro[2.5]octane-7-carboxamide and (S)-4-(5-(5-fluoro-2-methoxypyridin-4-yl)-1H-pyrazole-3-carbonyl)-N-(5-((S)-1-hydroxyethyl)pyrazolo[1,5-a]pyrimidin-3-yl)-4-azaspiro[2.5]octane-7-carboxamide] | 1.2 nM | 7.65 | – |
| COc1cc(-c2cc(C(=O)N3CCC(C(=O)NCC4CCn5cncc5C4)CC34CC4)[nH]n2)c(F)cn1 (mixture of isomers) [Example 342, (8)-4-(3-(5-fluoro-2-methoxypyridin-4-yl)-1H-pyrazole-5-carbonyl)-N—(((R)-5,6,7,8-tetrahydroimidazo[1,5-a]pyridin-7-yl)methyl)-4-azaspiro[2.5]octane-7-carboxamide and (S)-4-(3-(5-fluoro-2-methoxypyridin-4-yl)-1H-pyrazole-5-carbonyl)-N—(((S)-5,6,7,8-tetrahydroimidazo[1,5-a]pyridin-7-yl)methyl)-4-azaspiro[2.5]octane-7-carboxamide] | 78.3 nM | 5.95 | – |
